The experiment has as its target T1, H1299 cell pAxl (Homo sapiens, UniProt P30530).
T1 construct: endogenous in cells; host or cells: H1299
T1 sequence (P30530 26-894): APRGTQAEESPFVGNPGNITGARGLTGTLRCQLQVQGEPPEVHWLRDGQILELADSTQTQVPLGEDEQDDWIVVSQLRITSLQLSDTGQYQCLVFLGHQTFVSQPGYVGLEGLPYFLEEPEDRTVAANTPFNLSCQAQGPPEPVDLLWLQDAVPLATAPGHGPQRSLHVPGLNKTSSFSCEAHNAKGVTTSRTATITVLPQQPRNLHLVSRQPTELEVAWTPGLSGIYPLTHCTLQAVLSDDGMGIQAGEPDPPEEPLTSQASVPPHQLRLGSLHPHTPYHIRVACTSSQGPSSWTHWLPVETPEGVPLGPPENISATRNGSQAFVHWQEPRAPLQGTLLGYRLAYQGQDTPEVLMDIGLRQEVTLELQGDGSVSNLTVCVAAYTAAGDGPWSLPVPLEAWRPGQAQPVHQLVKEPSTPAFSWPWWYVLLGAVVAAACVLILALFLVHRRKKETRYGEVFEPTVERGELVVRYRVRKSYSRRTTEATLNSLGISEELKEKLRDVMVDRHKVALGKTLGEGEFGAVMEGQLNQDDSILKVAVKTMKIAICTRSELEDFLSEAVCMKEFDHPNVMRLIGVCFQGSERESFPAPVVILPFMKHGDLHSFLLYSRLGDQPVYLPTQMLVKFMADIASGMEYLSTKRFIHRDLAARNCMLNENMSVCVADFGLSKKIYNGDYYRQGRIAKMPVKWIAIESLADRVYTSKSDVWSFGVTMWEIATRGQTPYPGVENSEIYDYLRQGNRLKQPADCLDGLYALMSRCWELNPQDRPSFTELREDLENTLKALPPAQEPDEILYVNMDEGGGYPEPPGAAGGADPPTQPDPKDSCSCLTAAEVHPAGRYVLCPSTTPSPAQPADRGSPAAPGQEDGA
In words: Inhibitory activity on the cell pAxl (Western Blot). The experiment is classed as cell-based. To be noted: H1299 cells, compound 1.1, 3.3, 10, 30 nM, hGAS6 200 ng/mL. On the procedure:
Assay 5: Test for Inhibitory Activities of the Compounds of the Present Invention on the Cell pAxl
H1299 is a non-small cell lung cancer cell.
Test substances: the compounds of the present invention, wherein the structures thereof were as described above.
Test equipment: protein electrophoresis apparatus (manufactured by Bio Rad), transfer unit (manufactured by Bio Rad), exposure unit (manufactured by Tanon), CO2, cell incubator (manufactured by Thermo).
The H1299 cells were inoculated in a 6-well plate (containing 10% FBS 1640 medium, 5×10^5 cells per well), and adherent cells were cultivated at 37° C. in a 5% CO2 condition for 18 hours. The cells were starved overnight. Different concentrations of compounds were added. The final compound concentrations were 1.1, 3.3, 10, and 30 nM, and the final DMSO content was 1‰. The negative control wells contained the medium containing 1‰ DMSO. After incubating at 37° C. in a 5% CO2 condition for 60 minutes, hGAS6 (R&D, final concentration 200 ng/mL) was added to each well. After further incubating for 60 minutes, the cell total protein was extracted for Western Blot and the […] values were calculated using GraphPad 5.0 software. The inhibitory activity of the compound on the cell pAxl was examined.
In general terms: In western blotting, separated proteins are transferred to a membrane and probed.

Where only a bound is given, the exact number is not on record here.

Usually IC50 stands for the midpoint of a concentration-inhibition curve.

`COc1cc2nccc(Oc3ccc(NC(=O)c4cn(C5CC5)nc(-c5ccc(F)cc5)c4=O)cn3)c2cc1OC` [Compound 43, 2-cyclopropyl-N-(6-((6,7-dimethoxyquinolin-4-yl)oxy)pyridin-3-yl)-6-para-fluorophenyl-5-oxo-2,5-dihydropyridazine-4-carboxamide]: it took 3.3 nM to reach half-maximal inhibition (IC50).
To `COc1cc2nccc(Oc3cnc(NC(=O)c4cn(C5CC5)nc(-c5ccc(F)cc5)c4=O)nc3)c2cc1OC` [Compound 45, 2-cyclopropyl-N-(5-((6,7-dimethoxyquinolin-4-yl)oxy)pyrimidine-2-yl)-6-(4-fluorophenyl)-5-oxo-2,5-dihydropyridazine-4-carboxamide] belongs 1.1 nM; to `COc1cc2nccc(Oc3ccc(NC(=O)c4nn(C5CC5)cc(-c5ccc(C)cc5)c4=O)nc3)c2cc1OC` [Compound 46, 1-cyclopropyl-N-(5-((6,7-dimethoxyquinolin-4-yl)oxy)pyridin-2-yl)-4-oxo-5-p-tolyl-1,4-dihydropyridazine-3-carboxamide], less than 1.1 nM.
`COc1cc2nccc(Oc3ccc(NC(=O)c4cn(C5CC5)nc(-c5ccc(F)cc5)c4=O)nc3)c2cc1OC` [Compound 42, 2-cyclopropyl-N-(5--((6,7-dimethoxyquinolin-4-yl)oxy)pyridin-2-yl)-6-(4-fluorophenyl)-5-oxo-2,5-dihydropyridazine-4-carboxamide] registered an IC50 of 1.1 to 3.3 nM.
Molecule `COc1cc2nccc(Oc3ccc(NC(=O)c4cn(C(C)C)cc(-c5ccc(C)cc5)c4=O)nc3)c2cc1OC` [Compound 1, N-(5-((6,7-dimethoxyquinolin-4-yl)oxy)pyridin-2-yl)-1-isopropyl-4-oxo-5-p-tolyl-1,4-dihydropyridin-3-carboxamide] gave an IC50 of less than 1.1 nM.

For the origin of these results see patent US20220073496A1, “NOVEL QUINOLINE DERIVATIVE INHIBITOR” (Nanjing Transthera Biosciences Co., Ltd., priority 2018, published 2022).
